Data reported in PubChem BioAssay AID248 (DTP/NCI, 2004).
Several values for one entry are separate records, joined by “and”; a condition that tells them apart may be missing. Equal values may be shown once. Inconclusive results and toxic doses are left out.

Test system: L1210 leukemia ip in BDF1 mice, survival T/C
Assay: NCI In Vivo Anticancer Drug Screen. Data for tumor model L1210 Leukemia (intraperitoneal) in B6D2F1 (BDF1) mice
Conditions: endpoint: mean survival time, higher = longer survival
In short: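 Mice bearing the transplanted tumor received compound or vehicle. Survival of the treated group was divided by that of the vehicle-treated control group to give the ratio.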

[1] = dose: 100.0 mg/kg/injection, schedule: Q04DX003 (ip), vehicle: saline with Tween-80
[2] = dose: 400.0 mg/kg/injection, schedule: Q04DX003 (ip), vehicle: saline with Tween-80
[3] = dose: 100.0 mg/kg/injection, schedule: Q01DX001 (ip), vehicle: saline with Tween-80
[4] = dose: 200.0 mg/kg/injection, schedule: Q01DX001 (ip), vehicle: saline with Tween-80
[5] = dose: 200.0 mg/kg/injection, schedule: Q04DX003 (ip), vehicle: saline with Tween-80
[6] = dose: 400.0 mg/kg/injection, schedule: Q01DX001 (ip), vehicle: saline with Tween-80
[7] = dose: 50.0 mg/kg/injection, schedule: Q01DX009 (ip), vehicle: saline
[8] = dose: 100.0 mg/kg/injection, schedule: Q01DX009 (ip), vehicle: saline
[9] = dose: 100.0 mg/kg/injection, schedule: Q01DX009 (ip), vehicle: saline with Tween-80
[10] = dose: 200.0 mg/kg/injection, schedule: Q01DX009 (ip), vehicle: saline with Tween-80
[11] = dose: 400.0 mg/kg/injection, schedule: Q01DX009 (ip), vehicle: saline with Tween-80
[12] = dose: 100.0 mg/kg/injection, schedule: Q01DX001 (ip), vehicle: carboxymethylcellulose (CMC)
[13] = dose: 200.0 mg/kg/injection, schedule: Q01DX001 (ip), vehicle: carboxymethylcellulose (CMC)
[14] = dose: 400.0 mg/kg/injection, schedule: Q01DX001 (ip), vehicle: carboxymethylcellulose (CMC)
[15] = dose: 200.0 mg/kg/injection, schedule: Q04DX002 (ip), vehicle: Klucel (hydroxypropylcellulose) (HPC)
[16] = dose: 100.0 mg/kg/injection, schedule: Q04DX002 (ip), vehicle: saline with Tween-80
[17] = dose: 200.0 mg/kg/injection, schedule: Q04DX002 (ip), vehicle: saline with Tween-80
[18] = dose: 400.0 mg/kg/injection, schedule: Q04DX002 (ip), vehicle: saline with Tween-80

`CCCCN(C)c1ccc(N=Nc2cc(Cl)ccc2Cl)cc1` was tested, and the T/C [1] was 98 % of control and the T/C [2] was 86 % of control.
For `S=c1cc[nH]c2n[nH]nc12`, the T/C [3] was 101 % of control, the T/C [1] was 104 % of control and the T/C [4] was 101 % of control. The T/C [5] was 101 % of control, the T/C [6] was 103 % of control and the T/C [2] was 98 % of control.
With `COc1cc(C(=O)OC(C)CN2CCOCC2)cc(OC)c1OC` (centres undefined) the T/C (dose: 25.0 mg/kg/injection, schedule: Q01DX009 (ip), vehicle: saline) was 90 % of control, the T/C (dose: 25.0 mg/kg/injection, schedule: Q04DX003 (ip), vehicle: saline) was 95 % of control and the T/C [7] was 101 % of control. The T/C (dose: 50.0 mg/kg/injection, schedule: Q04DX003 (ip), vehicle: saline) was 109 % of control, the T/C [8] was 100 % of control and the T/C (dose: 100.0 mg/kg/injection, schedule: Q04DX003 (ip), vehicle: saline) was 101 % of control. For the same molecule, the T/C (dose: 200.0 mg/kg/injection, schedule: Q01DX009 (ip), vehicle: saline) was 90 % of control, the T/C (dose: 200.0 mg/kg/injection, schedule: Q04DX003 (ip), vehicle: saline) was 101 % of control and the T/C (dose: 400.0 mg/kg/injection, schedule: Q04DX003 (ip), vehicle: saline) was 111 % of control.
With `Nc1nc(SCc2ccccc2)c2ncn(CCCl)c2n1` the T/C (dose: 5.0 mg/kg/injection, schedule: Q01DX001 (ip), vehicle: carboxymethylcellulose (CMC)) was 107 % of control, the T/C (dose: 10.0 mg/kg/injection, schedule: Q01DX001 (ip), vehicle: carboxymethylcellulose (CMC)) was 107 % of control and the T/C (dose: 13.0 mg/kg/injection, schedule: Q01DX Z (ip), vehicle: carboxymethylcellulose (CMC)) was 105 % of control. For the same molecule, the T/C (dose: 20.0 mg/kg/injection, schedule: Q01DX001 (ip), vehicle: carboxymethylcellulose (CMC)) was 107 % of control, the T/C (dose: 30.0 mg/kg/injection, schedule: Q01DX Z (ip), vehicle: carboxymethylcellulose (CMC)) was 150 % of control and the T/C (dose: 40.0 mg/kg/injection, schedule: Q01DX001 (ip), vehicle: carboxymethylcellulose (CMC)) was 120 % of control. The T/C (dose: 67.0 mg/kg/injection, schedule: Q01DX Z (ip), vehicle: carboxymethylcellulose (CMC)) was 116 % of control, the T/C (dose: 80.0 mg/kg/injection, schedule: Q01DX001 (ip), vehicle: carboxymethylcellulose (CMC)) was 122 % of control and the T/C (dose: 100.0 mg/kg/injection, schedule: Q01DX Z (ip), vehicle: carboxymethylcellulose (CMC)) was 101 % of control. The T/C (dose: 150.0 mg/kg/injection, schedule: Q01DX Z (ip), vehicle: carboxymethylcellulose (CMC)) was 90 % of control and the T/C (dose: 320.0 mg/kg/injection, schedule: Q01DX001 (ip), vehicle: carboxymethylcellulose (CMC)) was 116 % of control.
`O=C(NCc1cnccn1)OCC(Cl)(Cl)Cl` was tested, and the T/C [9] was 97 % of control, the T/C [10] was 106 % of control and the T/C [11] was 103 % of control.
In the case of `O=C(Cn1cc(F)c(=O)[nH]c1=O)c1ccc(Cl)s1`, the T/C [9] is reported as 108 % of control, the T/C [1] is reported as 100 % of control and the T/C [10] is reported as 89 % of control. For the same molecule, the T/C [5] was 97 % of control, the T/C [11] was 97 % of control and the T/C [2] was 102 % of control.
For `C=C1C[C@]23C[C@@]1(O)CC[C@H]2[C@@]12C=C[C@H](O)[C@@](C)(C(=O)O1)[C@H]2[C@@H]3C(=O)O`, the T/C [12] was 94 % of control, the T/C (dose: 100.0 mg/kg/injection, schedule: Q01DX001 (ip), vehicle: saline) was 104 % of control and the T/C (dose: 100.0 mg/kg/injection, schedule: Q01DX009 (ip), vehicle: acetone) was 97 % of control. For the same molecule, the T/C [13] was 96 % of control, the T/C (dose: 200.0 mg/kg/injection, schedule: Q01DX001 (ip), vehicle: saline) was 104 % of control and the T/C (dose: 200.0 mg/kg/injection, schedule: Q01DX009 (ip), vehicle: acetone) was 94 % of control. For the same molecule, the T/C [14] was 94 % of control, the T/C (dose: 400.0 mg/kg/injection, schedule: Q01DX001 (ip), vehicle: saline) was 104 % of control and the T/C (dose: 400.0 mg/kg/injection, schedule: Q01DX009 (ip), vehicle: acetone) was 95 % of control. The T/C (dose: 800.0 mg/kg/injection, schedule: Q01DX009 (ip), vehicle: acetone) was 92 % of control.
In the case of `O=CC1OC(c2ccccc2)OC2COC(c3ccccc3)OC12` (centres undefined), the T/C (dose: 100.0 mg/kg/injection, schedule: Q01DX001 (ip), vehicle: Klucel (hydroxypropylcellulose) (HPC)) is reported as 103 % of control, the T/C (dose: 200.0 mg/kg/injection, schedule: Q01DX001 (ip), vehicle: Klucel (hydroxypropylcellulose) (HPC)) is reported as 97 % of control and the T/C (dose: 400.0 mg/kg/injection, schedule: Q01DX001 (ip), vehicle: Klucel (hydroxypropylcellulose) (HPC)) is reported as 93 % of control.
`O=c1c2ccccc2nc(CCN(CCCl)CCCl)n1-c1ccc(Cl)cc1` was tested, and the T/C (dose: 150.0 mg/kg/injection, schedule: Q04DX002 (ip), vehicle: Klucel (hydroxypropylcellulose) (HPC)) was 92 % of control, the T/C [15] was 98 % of control and the T/C (dose: 400.0 mg/kg/injection, schedule: Q04DX002 (ip), vehicle: Klucel (hydroxypropylcellulose) (HPC)) was 106 % of control.
`CN(C)CCCN1c2cc(Cl)ccc2Sc2ccc(Cl)cc21` was tested, and the T/C (dose: 100.0 mg/kg/injection, schedule: Q04DX002 (ip), vehicle: Klucel (hydroxypropylcellulose) (HPC)) was 122 % of control and the T/C [15] was 108 % of control.
For `Cc1ccccc1NC(=O)N(C)N`, the T/C (dose: 75.0 mg/kg/injection, schedule: Q01DX001 (ip), vehicle: carboxymethylcellulose (CMC)) was 93 % of control.
`CC12CCC(=O)C3C1CCCC32` was tested, and the T/C [12] was 100 % of control, the T/C [13] was 111 % of control and the T/C [14] was 103 % of control.
In the case of `[N-]=C=C(C(=O)c1ccccc1)[n+]1cc(Br)cc2ccccc21`, the T/C [16] is reported as 94 % of control, the T/C [17] is reported as 94 % of control and the T/C [18] is reported as 94 % of control.
In the case of `NC(=O)Nc1ccc2c(c1)Cc1ccccc1-2`, the T/C (dose: 50.0 mg/kg/injection, schedule: Q01DX001 (ip), vehicle: carboxymethylcellulose (CMC)) is reported as 100 % of control, the T/C [12] is reported as 96 % of control and the T/C [13] is reported as 100 % of control. The T/C [14] was 102 % of control.
In the case of `COc1ccc(/C=N\O)cc1OC`, the T/C [9] is reported as 94 % of control and 90 % of control, the T/C [10] is reported as 101 % of control and the T/C [11] is reported as 90 % of control.
In the case of `CCOCCC(=O)CC(=O)OC`, the T/C (dose: 50.0 mg/kg/injection, schedule: Q01DX009 (ip), vehicle: saline with Tween-80) is reported as 96 % of control, the T/C [9] is reported as 100 % of control and the T/C [10] is reported as 96 % of control.
For `O=C(OC1CCOCC1OC(=O)c1ccccc1)c1ccccc1` (centres undefined), the T/C [16] was 100 % of control, the T/C [17] was 100 % of control and the T/C [18] was 96 % of control.
In the case of `COC(=O)C1C(C)CCCC1(C)c1ccccc1` (centres undefined), the T/C (dose: 100.0 mg/kg/injection, schedule: Q04DX002 (ip), vehicle: gum acacia) is reported as 103 % of control, the T/C (dose: 200.0 mg/kg/injection, schedule: Q04DX002 (ip), vehicle: gum acacia) is reported as 106 % of control and the T/C (dose: 400.0 mg/kg/injection, schedule: Q04DX002 (ip), vehicle: gum acacia) is reported as 95 % of control.
With `OCC(O)COc1ccc(Cl)cc1` (centres undefined) the T/C [3] was 98 % of control, the T/C [9] was 100 % of control and 110 % of control and the T/C [1] was 98 % of control and 100 % of control. The T/C [4] was 105 % of control, the T/C [10] was 96 % of control and 100 % of control and the T/C [5] was 96 % of control and 103 % of control. For the same molecule, the T/C [6] was 88 % of control, the T/C [11] was 94 % of control and the T/C [2] was 100 % of control.
For `OCC1OC(n2ccc3c2ncn2ccnc32)C(O)C1O` (centres undefined), the T/C (dose: 25.0 mg/kg/injection, schedule: Q01DX005 (ip), vehicle: saline) was 91 % of control, the T/C (dose: 50.0 mg/kg/injection, schedule: Q01DX005 (ip), vehicle: saline) was 105 % of control and the T/C [7] was 102 % of control. For the same molecule, the T/C (dose: 100.0 mg/kg/injection, schedule: Q01DX005 (ip), vehicle: saline) was 93 % of control and the T/C [8] was 103 % of control.
For `Cc1ccc([N+](=O)[O-])cc1NC(=O)Nc1cc(Cl)ccc1O`, the T/C (dose: 100.0 mg/kg/injection, schedule: Q01DX009 (ip), vehicle: Klucel (hydroxypropylcellulose) (HPC)) was 93 % of control, the T/C (dose: 200.0 mg/kg/injection, schedule: Q01DX009 (ip), vehicle: Klucel (hydroxypropylcellulose) (HPC)) was 96 % of control and the T/C (dose: 400.0 mg/kg/injection, schedule: Q01DX009 (ip), vehicle: Klucel (hydroxypropylcellulose) (HPC)) was 95 % of control.
With `CN(C)CCC(C=NCC(CCN(C)C)(CCN(C)C)c1cccc2ccccc12)(CCN(C)C)c1cccc2ccccc12` the T/C (dose: 12.5 mg/kg/injection, schedule: Q01DX009 (ip), vehicle: saline with Tween-80) was 90 % of control, the T/C (dose: 12.5 mg/kg/injection, schedule: Q04DX003 (ip), vehicle: saline with Tween-80) was 102 % of control and the T/C (dose: 25.0 mg/kg/injection, schedule: Q01DX009 (ip), vehicle: saline with Tween-80) was 91 % of control. For the same molecule, the T/C (dose: 25.0 mg/kg/injection, schedule: Q04DX003 (ip), vehicle: saline with Tween-80) was 98 % of control.
